Data: publication PMC13252604, “First Generation Proteolysis Targeting Chimeras (PROTACs) for the Treatment of Progeria” (Advanced Science, 2026)

Assays:
[1] = test system: Lmna^G609G/G609G mouse fibroblasts; assay: Cellular uptake by fluorescence microscopy; format: cell-based; conditions: intrinsic fluorescence, 5 μM
Procedure: Supporting Figure S4. Cellular internalization of compounds 2 and 9. Live progeroid
LmnaG609G/G609G mouse fibroblasts were incubated with 5 μM of indicated compound and
images were taken every 5 minutes in a confocal fluorescence microscopy Olympus lx83
(lexc = 420 nm; lem = 530 nm). Shown image corresponds to 100 min incubation. Scale […]

progerin = target: T1, progerin (Homo sapiens, UniProt P02545); assay: Progerin quantification, immunoblot in human Lmna^G608G/G608G fibroblasts; format: cell-based; conditions: human Lmna^G608G/G608G patient-derived fibroblasts, vs vehicle
T1 construct: endogenous in cells; host or cells: HGADFN167 human HGPS fibroblasts (Progeria Research Foundation)
T1 sequence (P02545 1-614 isoform P02545-6): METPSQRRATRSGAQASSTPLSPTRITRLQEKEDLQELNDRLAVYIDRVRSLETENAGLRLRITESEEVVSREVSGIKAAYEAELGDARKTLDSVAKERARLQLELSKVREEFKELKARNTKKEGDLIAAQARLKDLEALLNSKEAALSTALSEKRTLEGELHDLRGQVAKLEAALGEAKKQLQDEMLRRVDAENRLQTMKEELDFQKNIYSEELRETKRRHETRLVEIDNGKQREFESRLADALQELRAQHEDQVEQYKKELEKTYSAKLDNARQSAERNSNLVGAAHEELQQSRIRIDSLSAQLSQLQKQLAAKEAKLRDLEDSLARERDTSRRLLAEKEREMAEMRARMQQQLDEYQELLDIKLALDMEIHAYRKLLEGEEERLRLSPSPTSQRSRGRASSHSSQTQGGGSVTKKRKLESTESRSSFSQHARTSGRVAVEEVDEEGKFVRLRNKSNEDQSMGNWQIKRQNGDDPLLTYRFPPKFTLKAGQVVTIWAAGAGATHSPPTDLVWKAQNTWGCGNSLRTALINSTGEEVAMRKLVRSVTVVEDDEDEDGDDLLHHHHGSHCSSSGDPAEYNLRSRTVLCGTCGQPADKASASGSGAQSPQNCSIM
Description: FIGURE 6 (A) Representative cropped immunoblots and progerin quantification in human Lmna^G608G/G608G fibroblasts. MW, molecular weight (in kDa) markers. […] (B) PROTAC 2 increases cell proliferation (upper panels) and decreases the number of misshapen nuclei (lower panels). White arrows highlight selected misshapen nuclei. (C) PROTAC 2 decreases senescence‐associated β‐galactosidase (SA‐βgal) activity, interleukin (IL) 6, p16 and p21 senescent markers. Bar graphs show mean±sem of 2 (SA‐βgal and p21) or 3 (IL‐6 and p16) independent experiments performed in triplicate. (D) PROTAC 2 decreases phosphorylated histone 2AX (pH2AX) and increases trimethylated histone 3 (H3K9Me3) levels. (E) PROTAC 2 increases the oxygen consumption rate (OCR), ATP production and the number of healthy mitochondria in human progeroid cells. […] Data were analysed using one‐way ANOVA followed by Dunnett's post–hoc test vs vehicle (panel A) or vs G608G cells (panels B‐E). ^*, p < 0.05; ^**, p < 0.01; ^***, p < 0.001; ^****, p < 0.0001. […]
was saturated at 100 ppm. Relative STD effects were calculated by comparing the intensity of the signals in the STD-NMR spectrum with signal intensities of the reference spectrum (off-resonance). The STD signal with the highest intensity was set to 100%, a nd other STD signals were calculated accordingly. […]
Cell viability was assessed as previously described.[64] […]

Structure (SMILES) | cellular uptake [1] | progerin levels (immunoblot quantification) (progerin)
CC1(C)Oc2cc3oc(=O)ccc3cc2C[C@@H]1OC(=O)CCCCCNc1cccc2c1C(=O)N(C1CCC(=O)NC1=O)C2=O (stereo partly drawn) [compound 2] | confirmed | the most potent in human cells
CC1(C)Oc2cc3oc(=O)ccc3cc2C[C@@H]1OC(=O)CCCCC(=O)Oc1ccc2c(c1)CCCN2C(=O)CCl [compound 12] |  | exhibited significant activity in human cells
